The test system of series [1] is α1a and α1d subtypes over the α1b subtype. The note with it: cited from earlier work.
Another series concerns BPH patients. The conditions noted are these: clinical studies; cited from earlier work.
The next series has as its target T1, α1a-AR (Homo sapiens, UniProt P35348).
T1 construct: expressed in transfected cells; host or cells: COS-7
T1 sequence (P35348 1-466): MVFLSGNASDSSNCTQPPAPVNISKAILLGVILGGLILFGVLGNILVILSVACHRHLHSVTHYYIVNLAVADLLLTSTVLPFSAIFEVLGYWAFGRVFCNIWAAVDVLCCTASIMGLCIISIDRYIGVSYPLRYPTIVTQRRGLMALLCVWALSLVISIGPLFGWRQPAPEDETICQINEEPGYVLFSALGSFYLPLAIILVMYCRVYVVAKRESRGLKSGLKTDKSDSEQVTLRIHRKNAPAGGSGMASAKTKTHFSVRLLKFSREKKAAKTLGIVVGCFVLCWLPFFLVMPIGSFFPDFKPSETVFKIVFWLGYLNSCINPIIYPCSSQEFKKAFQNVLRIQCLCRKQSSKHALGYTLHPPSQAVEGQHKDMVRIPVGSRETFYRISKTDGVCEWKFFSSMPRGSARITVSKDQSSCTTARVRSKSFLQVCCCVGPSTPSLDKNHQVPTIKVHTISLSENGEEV
Put plainly: α1-Adrenergic receptor radio-ligand (125I-HEAT) binding assay, α1a subtype. The conditions noted are these: COS-7 cell membranes transfected with α1a-AR, 125I-HEAT 50 pM. In short, it runs like this: (§1)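 Membranes from COS-7 cells transfected with a single α1-AR subtype, incubated 1 h at rt with 50 pM 125I-HEAT and compound (1 pM–10 µM, half-log steps, final) in Tris/EDTA/NaCl pH 7.4. Bound radioactivity collected by GF/C filtration and scintillation counting, triplicates; Ki derived.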

The target of another series is T2, α1d-AR (Homo sapiens, UniProt P25100).
T2 construct: expressed in transfected cells; host or cells: COS-7
T2 sequence (P25100 1-572): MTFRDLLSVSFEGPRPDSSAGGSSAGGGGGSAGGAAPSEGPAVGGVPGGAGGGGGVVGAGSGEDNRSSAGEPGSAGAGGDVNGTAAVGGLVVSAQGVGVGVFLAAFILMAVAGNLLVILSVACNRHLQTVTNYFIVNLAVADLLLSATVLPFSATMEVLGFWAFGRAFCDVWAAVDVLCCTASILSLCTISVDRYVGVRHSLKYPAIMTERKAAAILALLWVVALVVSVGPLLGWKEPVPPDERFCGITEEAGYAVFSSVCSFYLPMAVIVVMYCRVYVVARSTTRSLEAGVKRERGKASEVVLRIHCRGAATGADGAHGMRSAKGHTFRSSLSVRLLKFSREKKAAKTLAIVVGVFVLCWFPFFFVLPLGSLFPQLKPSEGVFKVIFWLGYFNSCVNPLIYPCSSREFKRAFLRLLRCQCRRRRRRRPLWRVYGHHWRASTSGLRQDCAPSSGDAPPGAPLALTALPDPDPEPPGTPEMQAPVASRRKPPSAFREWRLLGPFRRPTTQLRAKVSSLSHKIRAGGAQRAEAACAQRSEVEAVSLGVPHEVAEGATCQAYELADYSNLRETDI
Put plainly: α1-Adrenergic receptor radio-ligand (125I-HEAT) binding assay, α1d subtype. The conditions noted are these: COS-7 cell membranes transfected with α1d-AR, 125I-HEAT 50 pM. The method, boiled down: as §1

The target of another series is T3, α1b-AR (Homo sapiens, UniProt P35368).
T3 construct: expressed in transfected cells; host or cells: COS-7
T3 sequence (P35368 1-520): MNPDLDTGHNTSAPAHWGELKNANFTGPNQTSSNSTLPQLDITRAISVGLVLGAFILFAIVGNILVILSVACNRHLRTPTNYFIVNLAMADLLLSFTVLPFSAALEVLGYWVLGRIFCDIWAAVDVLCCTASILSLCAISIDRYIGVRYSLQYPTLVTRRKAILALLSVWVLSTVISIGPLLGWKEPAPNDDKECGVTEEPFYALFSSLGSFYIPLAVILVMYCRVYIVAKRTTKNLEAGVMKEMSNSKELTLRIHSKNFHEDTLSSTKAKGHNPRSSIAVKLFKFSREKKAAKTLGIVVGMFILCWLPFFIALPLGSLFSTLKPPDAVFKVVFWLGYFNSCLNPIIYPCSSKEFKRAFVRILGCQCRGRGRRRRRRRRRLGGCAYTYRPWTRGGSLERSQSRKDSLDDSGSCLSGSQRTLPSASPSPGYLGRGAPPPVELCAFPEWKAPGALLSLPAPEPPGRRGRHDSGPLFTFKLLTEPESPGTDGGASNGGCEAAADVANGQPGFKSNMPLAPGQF
Put plainly: α1-Adrenergic receptor radio-ligand (125I-HEAT) binding assay, α1b subtype. The note with it: COS-7 cell membranes transfected with α1b-AR, 125I-HEAT 50 pM. The method, boiled down:
as §1

In series [2] the test system is normal rats and rats with bladder hypertrophy secondary to outlet obstruction. The note with it: intrathecally administered; cited from earlier work.
The mark [3] stands for this setting: read-out: Receptor Binding, Ki α1a-AR.
Setting [4] is: read-out: Receptor Binding, Ki α1d-AR.
[5] abbreviates: read-out: Receptor Binding, Ki α1b-AR.

Where two headings read alike, the source gives them in different places.

`CCOc1ccccc1OCCN[C@H](C)Cc1ccc(OC)c(S(N)(=O)=O)c1` [Tamsulosin]: in series [1], the “selective for the α1a and α1d subtypes over the α1b subtype” value was “about 15 fold”. In addition, in the series with BPH patients, the “effect on obstructive and irritative symptoms of BPH” value is “improvement in both obstructive and irritative symptoms”.
As usually defined, the Ki is the equilibrium dissociation constant of an inhibitor or competing ligand from its target. As a reminder, the melting point is the temperature, or range, at which the solid turns liquid. In turn, `CC(C)Oc1ccccc1N1CCN(Cc2cccc(C(=O)N3CCc4cc(NCc5c(F)cccc5F)ccc43)c2)CC1` [Cpd 9, [5-(2,6-difluoro-benzylamino)-2,3-dihydro-indol-1-yl]-{3-[4-(2-isopropoxy-phenyl)-piperazin-1-ylmethyl]-phenyl}-methanone] registered a melting point of 127 to 130 °C. Besides, on α1a-AR (setting [3]), the Ki is 26 nM. Further, the Ki at α1d-AR (setting [4]) turned out to be 17 nM. Further, the Ki at α1b-AR (setting [5]) came to 2050 nM.
With `COc1cccc(OC)c1C(=O)Nc1ccc2c(c1)CCN2C(=O)c1cccc(CN2CCN(c3ccccc3OC(C)C)CC2)c1` [Cpd 26, N-(1-{3-[4-(2-isopropoxy-phenyl)-piperazin-1-ylmethyl]-benzoyl}-2,3-dihydro-1H-indol-5-yl)-2,6-dimethoxy-benzamide], the melting point fell in the range of 229 to 232 °C. Further, the Ki on α1a-AR (setting [3]) turned out to be 34 nM. In addition, at α1d-AR (setting [4]), the Ki amounted to 2 nM. For the same compound, on α1b-AR (setting [5]), the Ki amounted to 200 nM.
On to `CC(C)Oc1ccccc1N1CCN(Cc2cccc(C(=O)N3CCc4cc(NS(=O)(=O)c5ccc6ccccc6c5)ccc43)c2)CC1` [Cpd 2, naphthalene-2-sulfonic acid (1-{3-[4-(2-isopropoxy-phenyl)-piperazin-1-ylmethyl]-benzoyl}-2,3-dihydro-1H-indol-5-yl)-amide], for which the melting point lay in the range of 73 to 76 °C. The Ki on α1a-AR (setting [3]) worked out at 1.1 nM. For the same compound, the Ki on α1d-AR (setting [4]) came out at 9.7 nM. In addition, the Ki on α1b-AR (setting [5]) is 321 nM.
The compound `Cc1ccc(OC(=O)Nc2ccc3c(c2)CCN3C(=O)c2cccc(CN3CCN(c4ccccc4OC(C)C)CC3)c2)cc1` [Cpd 4, (1-{3-[4-(2-isopropoxy-phenyl)-piperazin-1-ylmethyl]-benzoyl}2,3-dihydro-1H-indol-5-yl)-carbamic acid p-tolyl ester] registered a melting point of 166 to 168 °C. On α1a-AR (Receptor Binding, Ki α1a-AR), this compound showed a Ki of 2.4 nM. The compound further came in with an inhibitory constant (Ki) at α1d-AR (Receptor Binding, Ki α1d-AR) of 20 nM. Also, on α1b-AR (Receptor Binding, Ki α1b-AR), the Ki stood at 96 nM.
As to `COc1cc2nc(N3CCN(C(=O)C4COc5ccccc5O4)CC3)nc(N)c2cc1OC` (centres unmarked) [doxazosin], the micturition pressure result in series [2] is reported as “decrease in micturition pressure”.
On to `CCOC(OCC)c1ccc(CNc2ccc3c(c2)N(C(=O)c2cccc(CN4CCN(c5ccccc5OC(C)C)CC4)c2)CC3)cc1` [Cpd 11], for which the melting point lay within 156 to 160 °C. For the same compound, the Ki on α1a-AR (setting [3]) was found to be 5 nM. Besides, the Ki at α1d-AR (setting [4]) came to 7 nM. The Ki on α1b-AR (setting [5]) was 6260 nM.
Regarding `CC(C)Oc1ccccc1N1CCN(Cc2cccc(C(=O)N3CCc4cc(NCc5ccc(C(F)(F)F)cc5)ccc43)c2)CC1` [Cpd 8, {3-[4-(2-isopropoxy-phenyl)-piperazin-1-ylmethyl]-phenyl}-[5-(4-trifluoromethyl-benzylamino)-2,3-dihydro-indol-1-yl]-methanone], the melting point lay in the range of 74 to 76 °C. Also, at α1a-AR (setting [3]), the Ki stood at 14 nM. Moreover, at α1d-AR (setting [4]), the Ki was found to be 15 nM. For the same compound, at α1b-AR (setting [5]), the Ki was 389 nM.
Taken in the same sequence, the figures for `CC(C)Oc1ccccc1N1CCN(Cc2cccc(C(=O)N3CCc4cc(NS(=O)(=O)c5cccc6c(N(C)C)cccc56)ccc43)c2)CC1` [Cpd 3, 5-dimethylamino-naphthalene-1-sulfonic acid (1-{3-[4-(2-isopropoxy-phenyl)-piperazin-1-ylmethyl]-benzoyl}-2,3-dihydro-1H-indol-5-yl)-amide] were 80 to 83 °C, 65 nM, 98 nM and 3450 nM.
On the same counts, the results for `CC(C)Oc1ccccc1N1CCN(Cc2cccc(C(=O)N3CCc4ccc(NCc5c(F)cccc5F)cc43)c2)CC1` [Cpd 6, [6-(2,6-difluoro-benzylamino)-2,3-dihydro-indol-1-yl]-{3-[4-(2-isopropoxy-phenyl)-piperazin-1-ylmethyl]-phenyl}-methanone] are 137 to 139 °C, 2 nM, 2.4 nM and 856 nM.

The values are drawn from patent US20060183902A1, “Dihydroindolyl methanones as alpha 1a/1d adrenoreceptor modulators for the treatment of benign prostatic hypertrophy and lower urinary tract symptoms” (priority 2005, published 2006).
